Reference: ChEMBL document CHEMBL4825753 (J Med Chem, 2021)
The source made the active and inactive calls. The rule behind the calls is not given here.

How the values were obtained:
[1] = target: T1, Receptor-type tyrosine-protein kinase FLT3 (Homo sapiens, UniProt P36888); assay: Inhibition of FLAG-tagged FLT3 (unknown origin) transfected in Cos-7 cells assessed as phosphorylation level incubated for 1 hr by ELISA; assay type: cell-based
T1 sequence (P36888 whole entry): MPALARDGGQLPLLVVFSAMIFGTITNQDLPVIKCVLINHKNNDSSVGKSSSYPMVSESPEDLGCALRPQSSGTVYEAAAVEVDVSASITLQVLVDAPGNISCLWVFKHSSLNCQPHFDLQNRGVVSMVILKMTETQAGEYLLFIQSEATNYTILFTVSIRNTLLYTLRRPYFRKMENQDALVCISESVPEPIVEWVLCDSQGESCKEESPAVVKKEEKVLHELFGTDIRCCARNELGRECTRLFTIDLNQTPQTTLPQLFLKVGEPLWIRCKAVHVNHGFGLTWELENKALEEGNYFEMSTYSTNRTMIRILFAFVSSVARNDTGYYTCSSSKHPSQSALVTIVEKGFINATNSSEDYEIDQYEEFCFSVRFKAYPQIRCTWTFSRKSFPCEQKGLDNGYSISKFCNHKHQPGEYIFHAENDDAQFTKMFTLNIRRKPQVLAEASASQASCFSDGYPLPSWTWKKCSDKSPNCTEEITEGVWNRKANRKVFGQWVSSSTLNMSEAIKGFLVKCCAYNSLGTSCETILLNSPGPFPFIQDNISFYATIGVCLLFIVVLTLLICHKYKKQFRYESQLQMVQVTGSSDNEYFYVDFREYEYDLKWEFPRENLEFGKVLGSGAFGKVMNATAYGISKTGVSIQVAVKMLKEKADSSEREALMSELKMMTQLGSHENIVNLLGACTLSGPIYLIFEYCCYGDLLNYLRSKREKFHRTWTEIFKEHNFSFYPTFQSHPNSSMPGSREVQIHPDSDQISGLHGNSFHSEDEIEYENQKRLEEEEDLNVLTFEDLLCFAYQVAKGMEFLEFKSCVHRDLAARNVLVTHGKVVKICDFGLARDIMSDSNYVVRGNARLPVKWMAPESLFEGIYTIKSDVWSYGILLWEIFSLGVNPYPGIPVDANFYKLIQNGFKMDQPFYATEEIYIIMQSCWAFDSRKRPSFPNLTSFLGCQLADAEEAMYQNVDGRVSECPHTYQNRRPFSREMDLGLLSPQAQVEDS

[2] = Induction efferocytosis in human PBMC assessed as CD14-positive monocytes
[3] = Photostability of compound assessed as half life; assay type: physicochemical
[4] = target: T2, Tyrosine-protein kinase receptor UFO (Homo sapiens, UniProt P30530); assay: Inhibition of FLAG-tagged AXL (unknown origin) transfected in Cos-7 cells assessed as phosphorylation level incubated for 1 hr by ELISA; assay type: cell-based
T2 sequence (P30530 whole entry): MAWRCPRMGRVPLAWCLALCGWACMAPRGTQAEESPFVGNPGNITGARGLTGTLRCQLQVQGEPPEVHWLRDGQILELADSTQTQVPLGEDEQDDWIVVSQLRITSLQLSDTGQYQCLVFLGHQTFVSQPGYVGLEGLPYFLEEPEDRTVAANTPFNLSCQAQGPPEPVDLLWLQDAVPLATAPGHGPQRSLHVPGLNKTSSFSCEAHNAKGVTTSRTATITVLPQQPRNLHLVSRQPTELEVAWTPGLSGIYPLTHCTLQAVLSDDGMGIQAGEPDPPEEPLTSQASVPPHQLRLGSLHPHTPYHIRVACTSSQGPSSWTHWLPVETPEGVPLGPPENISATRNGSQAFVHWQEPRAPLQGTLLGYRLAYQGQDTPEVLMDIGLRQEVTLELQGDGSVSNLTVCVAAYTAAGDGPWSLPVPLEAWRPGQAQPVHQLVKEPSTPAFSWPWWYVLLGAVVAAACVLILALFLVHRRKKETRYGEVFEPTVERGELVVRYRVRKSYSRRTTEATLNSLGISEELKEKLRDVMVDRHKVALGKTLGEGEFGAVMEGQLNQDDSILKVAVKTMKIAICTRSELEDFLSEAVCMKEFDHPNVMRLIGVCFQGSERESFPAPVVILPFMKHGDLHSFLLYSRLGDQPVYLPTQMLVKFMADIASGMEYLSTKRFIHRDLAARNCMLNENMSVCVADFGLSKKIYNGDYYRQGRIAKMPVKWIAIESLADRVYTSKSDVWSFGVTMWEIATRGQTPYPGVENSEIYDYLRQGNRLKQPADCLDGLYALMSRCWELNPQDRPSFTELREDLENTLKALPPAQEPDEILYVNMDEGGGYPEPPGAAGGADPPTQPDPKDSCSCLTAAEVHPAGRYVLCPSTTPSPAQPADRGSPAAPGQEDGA

[5] = target: T3, Tyrosine-protein kinase receptor TYRO3 (Homo sapiens, UniProt Q06418); assay: Inhibition of FLAG-tagged Tyro3 (unknown origin) transfected in Cos-7 cells assessed as phosphorylation level incubated for 1 hr by ELISA; assay type: cell-based
T3 sequence (Q06418 whole entry): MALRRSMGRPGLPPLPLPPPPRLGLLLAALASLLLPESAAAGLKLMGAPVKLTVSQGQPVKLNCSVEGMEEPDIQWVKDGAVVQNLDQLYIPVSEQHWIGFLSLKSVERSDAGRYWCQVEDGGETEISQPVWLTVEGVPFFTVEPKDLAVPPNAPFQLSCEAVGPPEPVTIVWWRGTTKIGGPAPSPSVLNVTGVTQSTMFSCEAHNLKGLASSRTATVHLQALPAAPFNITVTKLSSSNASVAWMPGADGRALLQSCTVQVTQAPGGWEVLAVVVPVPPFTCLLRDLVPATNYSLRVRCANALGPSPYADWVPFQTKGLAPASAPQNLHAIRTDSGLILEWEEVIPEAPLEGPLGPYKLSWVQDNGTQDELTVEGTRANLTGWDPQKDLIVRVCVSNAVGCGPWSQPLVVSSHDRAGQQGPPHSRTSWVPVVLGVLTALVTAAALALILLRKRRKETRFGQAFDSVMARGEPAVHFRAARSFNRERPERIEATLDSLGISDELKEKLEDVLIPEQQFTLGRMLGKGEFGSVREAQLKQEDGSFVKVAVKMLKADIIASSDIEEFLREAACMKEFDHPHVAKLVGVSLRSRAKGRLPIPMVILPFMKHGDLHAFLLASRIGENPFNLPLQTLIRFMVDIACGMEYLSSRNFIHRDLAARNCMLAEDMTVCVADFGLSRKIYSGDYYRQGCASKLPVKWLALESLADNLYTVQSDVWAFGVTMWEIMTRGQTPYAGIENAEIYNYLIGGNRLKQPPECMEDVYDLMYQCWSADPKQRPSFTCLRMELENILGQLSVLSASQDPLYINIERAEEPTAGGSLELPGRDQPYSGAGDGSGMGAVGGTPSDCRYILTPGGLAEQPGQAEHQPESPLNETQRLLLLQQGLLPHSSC

[6] = Lipophilicity, log D of the compound at pH 7.4; assay type: physicochemical; details: buffer
BaF3 [7] = assay: Growth inhibition of mouse BaF3 cells transfected with MER assessed as inhibition of cell growth incubated for 72 hrs by Cell-titer-Glo assay; assay type: functional
BaF3 [8] = assay: Growth inhibition of mouse BaF3 cells transfected with FLT3 assessed as inhibition of cell growth incubated for 72 hrs by Cell-titer-Glo assay; assay type: functional
BaF3 [9] = assay: Antitumour activity against mouse BaF3 cells transfected with MER implanted in C57BL/6J mouse assessed as reduction in MER phosphorylation at 30 to 100 mg/kg, po bid for 6 days by western blot analysis; assay type: functional, organism-based; details: dose 30-100 mg/kg, time 6.0 day
[10] = Fraction unbound in C57BL/6J mouse implanted with mouse BaF3 cells transfected with MER in at 3 to 100 mg/kg, po bid for 6 days; assay type: ADME, organism-based; details: in vivo, dose 3-100 mg/kg, time 6 day
BaF3 [11] = assay: Antitumour activity against mouse BaF3 cells transfected with MER implanted in C57BL/6J mouse assessed as reduction in tumour growth at 3 to 100 mg/kg, po bid for 6 days; assay type: functional, organism-based; details: dose 3-100 mg/kg, time 6.0 day
BaF3 [12] = assay: Growth inhibition of mouse BaF3 cells transfected with Tyro3 assessed as inhibition of cell growth incubated for 72 hrs by Cell-titer-Glo assay; assay type: functional
BaF3 [13] = assay: Antitumour activity against mouse BaF3 cells transfected with AXL implanted in C57BL/6J mouse assessed as reduction in tumour growth at 100 mg/kg, po bid for 6 days; assay type: functional, organism-based; details: time 6.0 day
BaF3 [14] = assay: Growth inhibition of mouse BaF3 cells transfected with AXL assessed as inhibition of cell growth incubated for 72 hrs by Cell-titer-Glo assay; assay type: functional
BaF3 [15] = assay: Antitumour activity against mouse BaF3 cells transfected with AXL implanted in C57BL/6J mouse assessed as reduction in AXL phosphorylation at 30 to 100 mg/kg, po bid for 6 days western blot analysis; assay type: functional, organism-based; details: dose 30-100 mg/kg, time 6.0 day
BaF3 [16] = assay: Growth inhibition of mouse BaF3 cells assessed as inhibition of cell growth incubated for 72 hrs by Cell-titer-Glo assay; assay type: functional
MC-38 = assay: Antitumour activity against mouse MC38 cells implanted in C57BL6 mouse assessed as increase in survival at 100 mg/kg, po bid for 2 weeks co-treatment with anti-PD1 further treated with ionizing radiation; assay type: functional, organism-based
[17] = Fraction unbound in C57BL/6J mouse implanted with mouse BaF3 cells transfected with AXL in at 3 to 100 mg/kg, po bid for 6 days; assay type: ADME, organism-based; details: in vivo, dose 3-100 mg/kg, time 6 day

Compound | IC50 [1] [µM] | pIC50 [2] | half-life [3] [days] | IC50 [4] [µM] | IC50 [5] [µM] | logD [6] | other results
Cc1cc(-c2c(C)nn(C)c2C)cnc1-c1nnc(N(C)Cc2ccc3ncc(-c4ccc(CN(C)C)nc4)n3c2)o1 | > 31.6 | – | – | 1.58 | > 31.6 | 2.5 | –
Cc1cc(-c2c(C)nn(C)c2C)ccc1-c1nnc(N(C)Cc2ccc3ncc(-c4cnn(CCN(C)C)c4)n3c2)o1 | > 31.6 | 7.8 | – | 0.126 | 12.6 | 3.5 | –
Cc1cc(-c2c(C)nn(C)c2C)cnc1-c1nnc(N(C)Cc2ccc3ncc(-c4cnn(CCN(C)C)c4)n3c2)o1 | > 31.6 | 7.1 | – | 1 | > 31.6 | 2.7 | –
Cc1cc(-c2c(C)nn(C)c2C)cnc1-c1nnc(N(C)Cc2ccc3ncc(-c4cccc(CN(C)C)c4)n3c2)o1 | > 31.6 | 7 | – | 0.316 | > 31.6 | 3 | –

Now from value to compound, other results behind:

IC50 [1] [µM] | pIC50 [2] | half-life [3] [days] | IC50 [4] [µM] | IC50 [5] [µM] | logD [6] | Compound | other results
7.94 | 6.7 | 11.4 | 0.2 | 20 | 5.3 | Cc1cc(-c2c(C)nn(C)c2C)ccc1-c1nnc(N(C)Cc2ccc3ncc(-c4ccccc4)n3c2)o1 | –
> 31.6 | 6.9 | – | 1.26 | > 31.6 | 2.5 | Cc1cc(-c2c(C)nn(C)c2C)ccc1-c1nnc(N(C)Cc2ccc3ncc(C4CCN(C)CC4)n3c2)o1 | –
10 | 7.1 | 17.8 | 0.398 | 25.1 | 3.3 | Cc1cc(-c2c(C)nn(C)c2C)ccc1-c1nnc(N(C)Cc2ccc3ncc(C(=O)N(C)C)n3c2)o1 | –
25.1 | 7.2 | – | 0.126 | > 31.6 | 3 | Cc1cc(-c2c(C)nn(C)c2C)cnc1-c1nnc(N(C)Cc2ccc3ncc(-c4ccc(CN(C)C)cn4)n3c2)o1 | –
12.6 | 7.2 | 11.4 | 0.0631 | 12.6 | 4 | Cc1cc(-c2c(C)nn(C)c2C)ccc1-c1nnc(N(C)Cc2ccc3ncc(-c4cnn(C)c4)n3c2)o1 | –
10 | – | – | – | – | 2.8 | CN1CCN(Cc2ccc(-c3ccc(CO[C@H]4CCC[C@@H]4NC(=O)c4cc(-c5cnn(C)c5)cnc4N)cc3)cc2)CC1 | GI50 (BaF3 [7]): 0.00794 µM; GI50 (BaF3 [8]): 5.01 µM; Activity (BaF3 [9]): Active; fraction unbound at 144 h [10]: 0.14; Activity (BaF3 [11]): Active; GI50 (BaF3 [12]): 3.16 µM; Activity (BaF3 [13]): Active; GI50 (BaF3 [14]): 0.0501 µM; Activity (BaF3 [15]): Active; GI50 (BaF3 [16]): 12.6 µM; Activity (MC-38): Active; fraction unbound at 144 h [17]: 0.14
